Experimental data: ChEMBL document CHEMBL1135881, “Ribose-modified nucleosides as ligands for adenosine receptors: synthesis, conformational analysis, and biological evaluation of 1'-C-methyl adenosine analogues” (J Med Chem, 2002)

Columns and labels:
[1] = molecular target: T1, Adenosine receptor A1 (Rattus norvegicus, UniProt P25099)
T1 sequence (P25099 whole entry): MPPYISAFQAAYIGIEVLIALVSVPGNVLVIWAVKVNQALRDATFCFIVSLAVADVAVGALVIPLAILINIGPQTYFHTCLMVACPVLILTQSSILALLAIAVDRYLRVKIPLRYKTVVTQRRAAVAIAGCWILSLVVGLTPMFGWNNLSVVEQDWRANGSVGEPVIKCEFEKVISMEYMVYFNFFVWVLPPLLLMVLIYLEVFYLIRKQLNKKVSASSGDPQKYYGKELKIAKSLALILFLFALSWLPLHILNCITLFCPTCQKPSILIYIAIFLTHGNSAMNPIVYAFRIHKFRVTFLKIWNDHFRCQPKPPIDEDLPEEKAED
Description: Inhibition of [3H]CHA (N6-cyclohexyl adenosine) to rat brain membrane Adenosine A1 receptor

[2] = molecular target: T2, Adenosine receptor A3 (Rattus norvegicus) (UniProt P28647); assay: Displacement of [3H](R)-PIA from Adenosine A3 receptor of rat testis membrane with 150 nM DPCPX at 10e-5 M
T2 sequence (whole entry): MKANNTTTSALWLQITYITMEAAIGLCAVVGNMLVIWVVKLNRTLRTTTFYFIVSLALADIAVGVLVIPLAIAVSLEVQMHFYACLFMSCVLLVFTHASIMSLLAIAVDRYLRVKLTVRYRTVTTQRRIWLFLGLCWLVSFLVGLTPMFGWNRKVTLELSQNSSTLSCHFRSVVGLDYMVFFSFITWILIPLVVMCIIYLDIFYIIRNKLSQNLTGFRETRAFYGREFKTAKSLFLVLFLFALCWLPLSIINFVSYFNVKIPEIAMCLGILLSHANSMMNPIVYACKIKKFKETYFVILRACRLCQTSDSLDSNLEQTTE

[3] = molecular target: Adenosine receptors; A1 & A3 (Rattus norvegicus) (UniProt P25099+P28647); assay: Selectivity for Adenosine A3 over Adenosine A1 receptor; type: protein assay
[4] = molecular target: Adenosine receptor A2a (Rattus norvegicus, UniProt P30543); assay: Affinity to Adenosine A2A receptor of rat brain striatum using [3H]-CGS- 21680; type: tissue-based
Adenosine receptor A2a, sequence (P30543 whole entry): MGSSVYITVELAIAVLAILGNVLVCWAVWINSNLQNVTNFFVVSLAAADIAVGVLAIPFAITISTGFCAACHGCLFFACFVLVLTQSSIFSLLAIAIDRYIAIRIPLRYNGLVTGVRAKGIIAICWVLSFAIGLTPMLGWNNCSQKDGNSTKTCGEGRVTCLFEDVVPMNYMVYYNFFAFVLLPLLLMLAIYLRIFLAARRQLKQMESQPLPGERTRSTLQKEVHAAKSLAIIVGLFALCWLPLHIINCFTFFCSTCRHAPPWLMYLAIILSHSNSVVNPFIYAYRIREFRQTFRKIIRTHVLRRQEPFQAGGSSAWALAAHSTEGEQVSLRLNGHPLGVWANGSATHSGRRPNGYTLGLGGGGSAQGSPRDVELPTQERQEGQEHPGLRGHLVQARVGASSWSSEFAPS

[5] = species on record: Rattus norvegicus; assay: % maximal inhibition of Adenylyl cyclase activity in rat cortical membranes at 10 uM; type: functional
[6] = species on record: Rattus norvegicus; assay: Inhibition of Adenylyl cyclase activity in rat cortical membranes; type: functional
[7] = species on record: Rattus norvegicus; assay: % maximal inhibition of Adenylyl cyclase activity in rat cortical membranes at 100 uM; type: functional
[8] = molecular target: T3, Adenosine receptor A3 (Rattus norvegicus, UniProt P28647); assay: Affinity to Adenosine A3 receptor of rat testis membrane using [3H](R)-PIA with 150 nM DPCPX
T3 sequence (P28647 whole entry): T2 sequence (whole entry)

[9] = molecular target: T2, Adenosine receptor A3 (Rattus norvegicus); assay: Displacement of [3H](R)-PIA from Adenosine A3 receptor of rat testis membrane with 150 nM DPCPX

Compound	Ki [1] [nM]	Selectivity [3]	IC50 [6] [nM]	Max inhibition [7] [%]	Ki [8] [nM]	also measured
OC[C@H]1O[C@@H](n2cnc3c(NC4CCCC4)ncnc32)[C@H](O)[C@@H]1O [N6-CYCLOPENTYLADENOSINE]						Ki [4]: 380 nM; Max inhibition [5]: 15.5%
C[C@H](Cc1ccccc1)Nc1ncnc2c1ncn2[C@@H]1O[C@H](CO)[C@@H](O)[C@@]1(C)O	4.7	230				Ki [4]: 7400 nM
C[C@@]1(n2cnc3c(NC4CCCC4)ncnc32)O[C@H](CO)[C@@H](O)[C@H]1O	100	52	357	17.4	5170	
C[C@@]1(n2cnc3c(N)ncnc32)O[C@H](CO)[C@@H](O)[C@H]1O	7700	> 1.3	3440	22		Displacement [9]: 19%
C[C@@H](Cc1ccccc1)Nc1ncnc2c1ncn2C1O[C@H](CO)[C@@H](O)[C@@]1(C)O (some centres undefined)	50	200				
C[C@H](Cc1ccccc1)Nc1ncnc2c1ncn2[C@]1(C)O[C@H](CO)[C@@H](O)[C@H]1O			65	23.7	670	

More lines, main results first:

Ki [1] [nM]	Selectivity [3]	IC50 [6] [nM]	Max inhibition [7] [%]	Ki [8] [nM]	Compound	also measured
740					C[C@@]1(O)[C@H](O)[C@@H](CO)O[C@H]1n1cnc2c(N)ncnc21	Displacement [2]: 0%
	> 202				C[C@@]1(O)[C@@H](CO)O[C@@H](n2cnc3c(N)ncnc32)[C@@H]1O	
9.5	22.1				C[C@@]1(O)[C@H](O)[C@@H](CO)O[C@H]1n1cnc2c(NC3CCCC3)ncnc21	
270		140	29	6160	C[C@@H](Cc1ccccc1)Nc1ncnc2c1ncn2[C@]1(C)O[C@H](CO)[C@@H](O)[C@H]1O	
